Assay results taken from US6432880B1, “Substituted 2-phenylpyridines as herbicides” (BASF Aktiengesellschaft, priority 1999, dated 2002).

| melting point | SMILES |
| --- | --- |
| 118 to 120 °C | COc1cc(-c2ncc(OS(C)(=O)=O)cc2Cl)c(F)cc1Cl [Ia.363, 2-(4-chloro-2-fluoro-5-methoxyphenyl)-3-chloro-5-(methylsulfonyl-oxy)pyridine] |
| 132 to 133 °C | CS(=O)(=O)Oc1cnc(-c2cc(O)c(Cl)cc2F)c(Cl)c1 [Ia.362, 2-(4-chloro-2-fluoro-5-hydroxyphenyl)-3-chloro-5-(methylsulfonyl-oxy) pyridine] |
